# Assay results: patent US7449466B2, “Cyclic aminophenyl sulfamate derivative” (Aska Pharmaceutical Co., Ltd., priority 2003, dated 2008)
# Columns and labels:
# [1] = test system: Chinese hamster lung fibroblast cells (CHL/IU cells); experiment: Chromosome aberration test using mammals' cultured cells; assay type: cell-based; conditions: short time and continuous treatment, negative = 5% or less
# Procedure: (7) Chromosome Aberration Test Using Mammals' Cultured Cells, for Examining Genetic Toxicity: Presence of clastogenic activity of the test compounds on cultured cells was examined by a chromosome aberration test using mammals' cultured cells (Mutat. Res., 48, 337-354). The test was conducted by short time treatment method and continuous treatment method, using Chinese hamster lung fibroblast cells (CHL/IU cells). […] After the end of the culture, the medium was removed and 5 mL of a fresh medium containing solvent or a test compound at the concentration levels designed as above was added to the dishes where the continuous treatment was intended. In the short time treatment in which no S9mix was added, 3 ML of the fresh medium similar to the above was added, and where S9mix was added, 3 mL of a fresh medium formed by adding 0.5 mL of S9mix to 2.5 mL of the fresh medium similar to the above was added to the respective dishes. […] In the continuous treatment, the culture time was increased to 24 hours. In both the short time treatment and continuous treatment, 50 μL of 10 μg/mL colcemide solution was added at two hours preceding the end of the culture. After the end of the culture, the cells were detached by 0.25% trypsine solution and transferred into a centifugation tube. […]
# steroid sulfatase = target: T1, steroid sulfatase (Rattus norvegicus, UniProt P15589); experiment: Steroid sulfatase inhibitory activity (in vivo), liver and uterus of ovariectomized rats after oral dosing; conditions: 0.5 mg/kg p.o. once a day for seven days, ovariectomized female SD rats
# T1 construct: The livers and uteri were separately minced with scissors and suspended in cooled PBS containing 250 mM sucrose; from tissue; host or cells: liver and uterus of ovariectomized female SD rats (2,000 x g supernatant of homogenate)
# T1 sequence (P15589 20-577): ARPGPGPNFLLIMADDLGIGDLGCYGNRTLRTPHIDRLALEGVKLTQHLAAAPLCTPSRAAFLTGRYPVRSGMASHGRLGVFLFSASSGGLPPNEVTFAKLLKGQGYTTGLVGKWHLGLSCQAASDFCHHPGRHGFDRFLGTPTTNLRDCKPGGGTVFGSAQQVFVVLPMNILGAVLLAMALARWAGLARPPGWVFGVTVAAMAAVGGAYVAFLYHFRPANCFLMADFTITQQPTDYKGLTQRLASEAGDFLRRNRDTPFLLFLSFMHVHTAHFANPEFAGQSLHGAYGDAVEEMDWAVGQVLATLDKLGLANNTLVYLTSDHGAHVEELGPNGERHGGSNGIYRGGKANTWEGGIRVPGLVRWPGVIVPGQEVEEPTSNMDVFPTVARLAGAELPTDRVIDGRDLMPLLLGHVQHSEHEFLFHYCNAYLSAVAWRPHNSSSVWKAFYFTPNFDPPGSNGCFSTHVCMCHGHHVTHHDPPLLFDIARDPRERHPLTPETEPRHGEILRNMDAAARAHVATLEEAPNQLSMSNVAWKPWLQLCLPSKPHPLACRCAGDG
# Procedure: (2) Measurement of Steroid Sulfatase Inhibitory Activity (in vivo):
# To six/group of female SD rats which had undergone ovariectomy, the test compounds as each suspended in 0.5% polyoxyethylene (20) sorbitan monooleate (Tween 80) were orally administered once a day for seven days. On the next day of the last administration, the rats were sacrificed under ether anesthesia. The bodies were anatomized and their livers and uteri were extracted, which were washed with cooled PBS and stored below −70° C. The livers and uteri were separately minced with scissors and suspended in cooled PBS containing 250 mM sucrose. Each of the suspensions was homogenized with a homogenizer under cooling with ice, from which neclei and cell debris were eliminated by centrifugation at 2,000×g for 20 minutes (4° C.). Protein concentration of each of the supernatant was measured by Bradford's method (Anal. Biochem., 72, 248-254 (1976)).
# To 2-200 μg of the supernatant protein mass and 50 μL of 60 μM estrone-3-sulfate containing about 100 nCi of [6,7-^3H]estrone-3-sulfate (purchased from Perkin Elmer Life Sciences, Boston, Mass., U.S.A.; specific activity, 40-60 Ci/mmol), PBS was added to make the total amount 150 μL, followed by incubation at 37° C. for 30 minutes. After the incubation, the amount of hydrolyzed [6,7-^3H]estrone-3-sulfate was calculated by a method similar to the in vitro measurement in (1) above. Also steroid sulfatase activity per mg of the protein was calculated, and from the amount of the hydrolyzed [6,7-^3H]estrone-3-sulfate and the calculated steroid sulfatase activity per mg of the protein, the tested compound's steroid sulfatase inhibitory rate was determined.
compound,measurement,setting,value
"NS(=O)(=O)Oc1ccc(N2CCN(CCCC3CCCCC3)CC2)cc1F [Example 24, 4-[4-(3-cyclohexylpropyl)piperazin-1-yl]-2-fluorophenyl-O-sulfamate]",Chromosome aberration test: Numerical abnormality,[1],negative
same,Chromosome aberration test: Structural abnormality,[1],negative
same,"Inhibitiory rate (0.5 mg/kg, p.o., %) Liver",steroid sulfatase; liver,98.30%
same,"Inhibitiory rate (0.5 mg/kg, p.o., %) Uterus",steroid sulfatase; uterus,97.87%
